Earlier results, collected in US20140100272A1, “METHODS OF ADMINISTERING COMPOSITIONS COMPRISING DOCOSAPENTAENOIC ACID” (Matinas BioPharma, Inc., priority 2012, published 2014).

Settings: in vivo

- absorbed at rates: about 30%
Compound: CC[C@H](C)C(=O)O[C@H]1C[C@@H](C)C=C2C=C[C@H](C)[C@H](CC[C@@H]3C[C@@H](O)CC(=O)O3)[C@H]21 [lovastatin]
